Results on 23 molecules are retold here after ChEMBL document CHEMBL1201862, “PubChem BioAssay data set” (2004).

Counter-ions that a name gives are not always drawn. Calls of active or inactive are those of the source. Where only a bound is given, the exact number is not on record here.

Assay [1] in a line: control 3'UTR Renilla luciferase suppression, dose response, counter-screen for Shn3 inhibitor project, cell-based, Clone20-Shn3RL, cherry-picked (AID 624133). The assay is classed as functional.
The nature of assay [2]: Shn3 3'UTR reporter inhibitors, dose response, cell-based, Clone20 osteoblasts, firefly luciferase, cherry-picked (AID 624132).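 Further: firefly luciferase luminescence from reporter carrying the Shn3 3'UTR in osteoblasts.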 The assay is classed as functional.
A short description of assay [3]: HepG2 cell cytotoxicity, dose response, cytotoxicity control for Shn3 inhibitor project, CellTiter-Glo, cherry-picked (AID 624134). Type of assay: functional, cell-based. (Cellular ATP, detected with luciferase, serves as a proxy for viable cell number.)
In assay [4] the target is Photoreceptor-specific nuclear receptor (Homo sapiens, UniProt Q9Y5X4). The assay is classed as functional, cell-based.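 Further: CHO-S cells with Gal4-NCOR and VP16-NR2E3 two-hybrid luciferase reporter.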
Photoreceptor-specific nuclear receptor, sequence (Q9Y5X4 whole entry, the tested form may be a part): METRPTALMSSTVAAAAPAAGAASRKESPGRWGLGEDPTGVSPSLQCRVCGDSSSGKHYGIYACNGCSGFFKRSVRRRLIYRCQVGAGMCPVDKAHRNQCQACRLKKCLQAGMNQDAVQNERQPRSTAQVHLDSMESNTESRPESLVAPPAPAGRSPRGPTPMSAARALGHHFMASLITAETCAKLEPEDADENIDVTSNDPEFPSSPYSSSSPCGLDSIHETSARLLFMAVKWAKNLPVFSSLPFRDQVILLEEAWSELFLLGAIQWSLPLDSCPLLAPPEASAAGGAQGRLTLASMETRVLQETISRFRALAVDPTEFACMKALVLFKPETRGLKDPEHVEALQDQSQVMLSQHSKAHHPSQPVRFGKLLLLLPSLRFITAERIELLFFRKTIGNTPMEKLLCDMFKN
Assay [5] concerns the target T1, Nuclear receptor subfamily 0 group B member 1 (Homo sapiens, UniProt P51843).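 Further: HEK293T cells transfected with SF-1 and DAX-1 plus StAR promoter luciferase reporter.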
T1 sequence (P51843 whole entry): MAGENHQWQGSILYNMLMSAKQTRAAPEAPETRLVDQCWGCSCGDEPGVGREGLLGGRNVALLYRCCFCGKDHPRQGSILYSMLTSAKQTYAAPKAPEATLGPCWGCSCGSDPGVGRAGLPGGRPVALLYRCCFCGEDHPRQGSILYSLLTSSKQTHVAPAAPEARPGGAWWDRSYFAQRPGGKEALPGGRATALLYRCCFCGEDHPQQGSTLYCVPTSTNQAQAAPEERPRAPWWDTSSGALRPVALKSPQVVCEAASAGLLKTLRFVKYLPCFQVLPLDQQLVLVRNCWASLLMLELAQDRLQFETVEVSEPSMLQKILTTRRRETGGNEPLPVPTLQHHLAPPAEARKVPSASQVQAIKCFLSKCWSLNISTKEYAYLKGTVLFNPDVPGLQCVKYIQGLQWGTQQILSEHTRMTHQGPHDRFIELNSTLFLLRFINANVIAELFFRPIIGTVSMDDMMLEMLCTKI
Type of assay: functional, cell-based.

The nature of assay [6]: cells. Type of assay: functional, cell-based.
Assay [7] deals with FAD-linked sulfhydryl oxidase ALR (Homo sapiens, UniProt P55789). The assay is described as follows: inhibitors of human ALR sulfhydryl oxidase, dose response, biochemical, H2O2 detection, luminescence, cherry-pick (AID 493248).
FAD-linked sulfhydryl oxidase ALR, sequence (P55789 whole entry): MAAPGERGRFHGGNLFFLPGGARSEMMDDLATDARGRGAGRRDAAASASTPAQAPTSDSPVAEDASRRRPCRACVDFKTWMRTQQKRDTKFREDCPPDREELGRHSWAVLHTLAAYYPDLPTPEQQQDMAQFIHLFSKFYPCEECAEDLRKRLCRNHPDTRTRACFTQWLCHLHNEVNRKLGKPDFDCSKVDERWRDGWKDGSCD
Assay [8] can be described thus: HEK293T cytotoxicity, dose response, cytotoxicity control for miR-122 modulator project, cell-based, inhibitor set, cherry-pick, set 2 (AID 720697). The assay is classed as functional.
For assay [9], the target named is T2, Caspase-3 (Homo sapiens, UniProt P42574).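 Further: Dose-response selectivity test against caspase-3 for candidate inhibitors of sentrin-specific proteases (SENPs).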
T2 sequence (P42574 whole entry): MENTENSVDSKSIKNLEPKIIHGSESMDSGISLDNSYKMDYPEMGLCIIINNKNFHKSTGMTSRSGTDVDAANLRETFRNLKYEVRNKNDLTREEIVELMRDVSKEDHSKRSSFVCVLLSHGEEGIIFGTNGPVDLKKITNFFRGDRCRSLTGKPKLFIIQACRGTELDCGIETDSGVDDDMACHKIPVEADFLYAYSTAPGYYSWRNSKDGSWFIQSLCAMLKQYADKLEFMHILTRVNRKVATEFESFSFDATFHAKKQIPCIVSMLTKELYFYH
The assay is classed as functional.

Assay [10] has as its target T3, Sentrin-specific protease 7 (Homo sapiens, UniProt Q9BQF6).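 Further: Luminescence-based dose-response confirmation of ultra-high-throughput screening hits, measuring inhibition of SENP7.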
T3 sequence (Q9BQF6 whole entry): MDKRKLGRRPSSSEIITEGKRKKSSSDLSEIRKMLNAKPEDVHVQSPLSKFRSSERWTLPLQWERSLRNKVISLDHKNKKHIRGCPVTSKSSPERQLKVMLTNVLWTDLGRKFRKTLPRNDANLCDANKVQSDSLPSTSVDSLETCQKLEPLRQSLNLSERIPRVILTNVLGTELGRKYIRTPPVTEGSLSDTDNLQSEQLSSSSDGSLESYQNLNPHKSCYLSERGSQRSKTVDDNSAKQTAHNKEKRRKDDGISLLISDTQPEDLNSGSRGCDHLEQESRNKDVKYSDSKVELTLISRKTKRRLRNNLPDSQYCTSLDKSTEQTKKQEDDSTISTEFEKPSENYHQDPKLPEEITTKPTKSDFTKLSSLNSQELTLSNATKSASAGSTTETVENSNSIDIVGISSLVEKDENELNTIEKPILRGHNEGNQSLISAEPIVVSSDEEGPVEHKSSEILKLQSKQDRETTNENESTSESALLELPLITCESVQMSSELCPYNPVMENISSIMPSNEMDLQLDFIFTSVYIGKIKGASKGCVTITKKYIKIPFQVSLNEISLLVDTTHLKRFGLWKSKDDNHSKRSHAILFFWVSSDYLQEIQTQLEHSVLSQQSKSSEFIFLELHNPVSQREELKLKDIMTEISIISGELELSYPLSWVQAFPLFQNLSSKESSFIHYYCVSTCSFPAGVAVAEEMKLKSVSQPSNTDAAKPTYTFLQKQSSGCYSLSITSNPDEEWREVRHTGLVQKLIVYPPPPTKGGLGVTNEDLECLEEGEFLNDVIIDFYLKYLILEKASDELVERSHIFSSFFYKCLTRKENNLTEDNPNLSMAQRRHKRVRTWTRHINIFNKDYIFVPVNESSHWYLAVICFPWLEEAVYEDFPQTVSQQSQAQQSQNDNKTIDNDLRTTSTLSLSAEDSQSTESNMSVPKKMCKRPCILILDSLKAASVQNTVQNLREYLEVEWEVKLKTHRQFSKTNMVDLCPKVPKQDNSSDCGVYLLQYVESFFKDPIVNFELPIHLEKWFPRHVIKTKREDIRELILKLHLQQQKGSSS
The assay is classed as functional.

Assay [11] deals with T4, Sentrin-specific protease 8 (Homo sapiens, UniProt Q96LD8).
T4 sequence (Q96LD8 whole entry): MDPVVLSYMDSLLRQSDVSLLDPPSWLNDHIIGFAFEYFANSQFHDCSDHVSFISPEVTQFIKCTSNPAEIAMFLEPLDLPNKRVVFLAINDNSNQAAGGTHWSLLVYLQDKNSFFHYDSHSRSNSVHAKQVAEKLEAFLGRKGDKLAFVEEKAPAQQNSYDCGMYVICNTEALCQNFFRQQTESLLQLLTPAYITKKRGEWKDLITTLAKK
Type of assay: functional.

Assay [12] addresses T5, Sentrin-specific protease 6 (Homo sapiens, UniProt Q9GZR1).
T5 sequence (Q9GZR1 whole entry): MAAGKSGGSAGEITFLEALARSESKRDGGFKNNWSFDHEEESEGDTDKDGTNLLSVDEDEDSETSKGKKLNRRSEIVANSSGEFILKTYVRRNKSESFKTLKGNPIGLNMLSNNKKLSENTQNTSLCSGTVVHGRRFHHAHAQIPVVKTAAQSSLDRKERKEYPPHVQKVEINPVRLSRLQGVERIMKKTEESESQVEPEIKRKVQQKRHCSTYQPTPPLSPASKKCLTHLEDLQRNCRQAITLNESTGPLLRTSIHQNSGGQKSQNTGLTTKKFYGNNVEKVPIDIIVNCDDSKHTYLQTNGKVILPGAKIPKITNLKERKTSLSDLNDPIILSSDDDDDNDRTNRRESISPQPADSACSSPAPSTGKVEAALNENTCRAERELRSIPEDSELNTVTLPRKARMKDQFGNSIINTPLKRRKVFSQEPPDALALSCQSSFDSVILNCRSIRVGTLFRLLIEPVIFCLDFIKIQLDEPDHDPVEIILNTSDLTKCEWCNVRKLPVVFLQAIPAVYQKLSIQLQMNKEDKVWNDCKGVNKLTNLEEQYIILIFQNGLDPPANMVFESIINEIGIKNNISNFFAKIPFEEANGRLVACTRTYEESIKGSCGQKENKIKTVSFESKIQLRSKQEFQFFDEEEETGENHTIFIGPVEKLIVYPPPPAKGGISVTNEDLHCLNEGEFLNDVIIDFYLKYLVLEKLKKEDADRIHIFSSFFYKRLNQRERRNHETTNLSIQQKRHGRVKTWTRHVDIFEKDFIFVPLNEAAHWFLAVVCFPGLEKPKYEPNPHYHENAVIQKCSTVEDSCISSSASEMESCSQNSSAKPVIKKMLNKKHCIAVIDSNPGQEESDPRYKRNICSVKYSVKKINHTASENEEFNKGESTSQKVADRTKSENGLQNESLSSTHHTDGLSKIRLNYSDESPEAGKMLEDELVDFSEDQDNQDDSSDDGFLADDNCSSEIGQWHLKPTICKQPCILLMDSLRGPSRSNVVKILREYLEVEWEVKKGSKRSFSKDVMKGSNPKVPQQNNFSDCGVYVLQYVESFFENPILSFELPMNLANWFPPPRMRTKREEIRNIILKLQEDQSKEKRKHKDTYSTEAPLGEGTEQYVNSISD
Type of assay: functional.

A short description of assay [13]: miR-122 activators in hepatoma reporter cells, dose response, cell-based, Huh7 psiCHECK-miR122, Renilla luciferase, cherry-picked (AID 651956).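 Further: huh7 hepatoma cells stably carrying a psiCHECK-2 miR-122 sensor plasmid; renilla luciferase signal reporting endogenous miR-122 activity after 48 h compound exposure.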 Type of assay: functional.
Assay [14] addresses T4, Sentrin-specific protease 8. The assay is classed as functional. This is another data set of the same source.
For assay [15] the target is unchanged. The assay is classed as functional. This is another data set of the same source.
Assay [16] deals with Beta-galactosidase (Escherichia coli, UniProt Q8VNN2). The assay is described as follows: Dose response counterscreen for EBI2 assay utilizing the enzyme, b-galactosidase. Type of assay: functional. On the technique in general: Counterscreens check selectivity or assay interference.
Beta-galactosidase, sequence (Q8VNN2 whole entry): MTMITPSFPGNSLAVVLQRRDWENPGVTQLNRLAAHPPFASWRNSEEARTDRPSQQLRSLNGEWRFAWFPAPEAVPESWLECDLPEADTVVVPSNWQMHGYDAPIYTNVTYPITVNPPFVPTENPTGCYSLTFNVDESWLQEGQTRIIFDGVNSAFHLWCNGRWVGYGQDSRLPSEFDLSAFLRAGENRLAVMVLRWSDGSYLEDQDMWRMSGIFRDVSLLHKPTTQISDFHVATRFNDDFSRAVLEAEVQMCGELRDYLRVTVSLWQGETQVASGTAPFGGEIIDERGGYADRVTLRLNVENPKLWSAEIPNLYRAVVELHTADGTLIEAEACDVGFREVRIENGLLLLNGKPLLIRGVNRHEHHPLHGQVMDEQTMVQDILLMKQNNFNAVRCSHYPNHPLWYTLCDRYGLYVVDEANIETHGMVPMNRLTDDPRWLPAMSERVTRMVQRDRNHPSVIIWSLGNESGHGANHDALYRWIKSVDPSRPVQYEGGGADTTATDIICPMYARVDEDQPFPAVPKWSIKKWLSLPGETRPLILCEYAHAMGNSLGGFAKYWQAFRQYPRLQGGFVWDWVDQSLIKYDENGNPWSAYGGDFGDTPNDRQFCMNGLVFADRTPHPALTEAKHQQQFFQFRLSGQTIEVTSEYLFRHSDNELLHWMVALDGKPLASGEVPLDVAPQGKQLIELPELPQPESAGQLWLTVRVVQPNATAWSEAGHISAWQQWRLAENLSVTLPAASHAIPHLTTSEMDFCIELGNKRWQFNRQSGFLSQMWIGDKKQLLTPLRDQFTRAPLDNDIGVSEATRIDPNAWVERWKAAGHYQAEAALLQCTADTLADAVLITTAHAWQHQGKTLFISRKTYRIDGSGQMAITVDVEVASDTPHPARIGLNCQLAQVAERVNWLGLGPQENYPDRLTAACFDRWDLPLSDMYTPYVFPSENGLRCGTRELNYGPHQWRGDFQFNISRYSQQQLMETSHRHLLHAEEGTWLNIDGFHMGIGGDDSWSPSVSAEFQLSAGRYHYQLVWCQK
Assay [17] concerns INS1. The assay is described as follows: beta cell apoptosis inhibitors, cytokine rescue, dose response, luminescence, retest (AID 449756).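 Further: cell death triggered by IL-1 beta plus TNF-alpha plus IFN-gamma mixture; protective hits raise ATP signal compared with cytokine alone wells.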 Type of assay: functional, cell-based. The settings on record: Rattus norvegicus.
The nature of assay [18]: cells. Type of assay: functional.
Assay [19] addresses Dual specificity tyrosine-phosphorylation-regulated kinase 1A (Rattus norvegicus, UniProt Q63470). Type of assay: biochemical, Homo sapiens.
Assay [20] has as its target Mu-type opioid receptor (Homo sapiens, UniProt P35372). The assay is classed as functional, cell-based.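 Further: U2OS cells with beta-arrestin recruitment to OPRM1 by beta-gal complementation.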

Mu-type opioid receptor, sequence (P35372 whole entry): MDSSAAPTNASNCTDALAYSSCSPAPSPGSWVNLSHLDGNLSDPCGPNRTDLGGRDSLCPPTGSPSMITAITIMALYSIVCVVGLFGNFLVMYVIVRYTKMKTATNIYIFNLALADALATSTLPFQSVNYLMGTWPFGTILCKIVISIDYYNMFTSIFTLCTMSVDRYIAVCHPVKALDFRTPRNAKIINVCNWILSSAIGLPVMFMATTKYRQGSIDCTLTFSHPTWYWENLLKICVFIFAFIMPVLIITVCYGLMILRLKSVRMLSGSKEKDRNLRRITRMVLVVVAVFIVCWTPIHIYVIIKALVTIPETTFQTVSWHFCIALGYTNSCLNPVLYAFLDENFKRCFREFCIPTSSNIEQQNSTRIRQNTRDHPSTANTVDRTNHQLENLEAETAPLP

The AC50 is the concentration at which the activity in the assay is half-maximal. As to `Cc1csc(NC(=O)Cc2nn(C)c(=O)c3ccccc23)n1`, the AC50 is 5.18 µM (active) in [1], 6.82 µM (active) in [2] and 46.5 µM (active) in assay [3].
Broadly, the IC50 is the concentration that inhibits the measured activity by half. As to `O=C(Nc1ccc(N2CCN(C(=O)c3ccccc3)CC2)cc1)c1ccc2c(c1)OCO2`, the IC50 in [4] was 13.3 µM (inactive).
Turning to `Cc1ccc(/C=N/Nc2ccc3ccccc3n2)o1`, the IC50 in [5] and in [6] was > 67.5 µM (inactive) throughout. Besides, the half-maximal activity concentration (AC50) in [7] was 5.31 µM (active).
On to `CN(Cc1ccccc1)C(=O)COC(=O)c1ccccc1Nc1ccccc1`, for which, in [8], the AC50 was 8.73 µM (active).
Consider `Cc1nc(C)c(-c2csc(Nc3ncccc3C)n2)s1`, for which the IC50 was 16.4 µM (active) in [9], 3.96 µM (active) in assay [10], > 100 µM (inactive) in assay [11] and 5.89 µM (active) in [12].
As to `Cc1cc(C)cc(NC(=O)CCc2nc3sc4c(c3c(=O)[nH]2)CCCC4)c1`, the IC50 in assay [4] was 0.277 µM (active).
As to `O=S(=O)(Nc1nccs1)c1ccc(NS(=O)(=O)c2cccs2)cc1`, the concentration at half-maximal activity (AC50) in assay [13] is 20.1 µM (active); in [8], 5.42 µM (active).
With `O=C(N/N=C/c1ccc([N+](=O)[O-])o1)c1ccncc1`, the results for the IC50 in assay [14] and in assay [15] were 39.9 µM (active) and 35.3 µM (active), respectively.
Consider `CCOC(=O)N1CCN(C(=O)/C=C/c2ccc(C(C)(C)C)cc2)CC1`, for which the IC50 in assay [16] was > 80 µM (inactive).
In the case of `COc1ccc(/C(C)=N/Nc2nccnc2Cl)cc1`, the IC50 in assay [5] and in assay [6] was > 67.6 µM (inactive) each time.
`O=C(Nc1cccc(Cl)c1)c1ccc(OC(=S)N2CCOCC2)cc1`: the IC50 was 31.4 µM (active) in [9], 2.85 µM (active) in [10], > 100 µM (inactive) in [11] and > 100 µM (inactive) in assay [12].
As to `O=NN(CC(=O)NNc1ccccc1)CC(=O)NNc1ccccc1`, the IC50 in assay [4] is 18.3 µM (inactive).
As for `COc1ccc(C(=O)/C=C/C(=O)N(CC(=O)NCCC(C)C)Cc2cccs2)c(O)c1`, the concentration at half-maximal activity (AC50) was 13.2 µM (active) in assay [1], 3.49 µM (active) in assay [2] and 51.7 µM (active) in assay [3].
With `COCCC1CCCCN1C(=O)c1cc(COc2ccc(-n3cncn3)cc2)on1` (stereo not given), the AC50 was 1.22 µM (active) in [1], 0.57 µM (active) in [2], 3.08 µM (active) in assay [17] and 50.5 µM (active) in [3].
Consider `O=C(Nc1ccc(C(=O)N2CCCCC2)cc1)C1=CSCCO1`, for which the IC50 in assay [5] and in [6] was > 67.6 µM (inactive) each time.
As to `CCN1CCC2(CC1)N=C(c1ccc(F)cc1)C(=S)N2C(=O)c1ccc(C)cc1`, the IC50 in assay [14] is > 100 µM (inactive); in assay [15], 15.3 µM (active).
Taken in the same sequence, the figures for `CCC(CO)Oc1cc(NCc2ccncc2)c2ncn(C(C)C)c2c1` (stereo not given) were 37.6 µM (active) and 24.5 µM (active).
Regarding `CCNc1nc2c(c(=O)n(C)c(=O)n2C)n1Cc1ccc(Cl)cc1`, the IC50 in assay [4] is 14.7 µM (inactive).
As to `CCN(C(=O)c1cc2c(=O)n3ccccc3nc2n1C)C1CCCCC1`, the IC50 in assay [5] and in assay [6] was > 67.5 µM (inactive) throughout.
Regarding `CSc1ccc(/C=C/C(=O)c2ccc(NC(=O)Cc3ccccc3)cc2)cc1`, the IC50 in assay [16] was > 80 µM (inactive).
Turning to `CC1Cc2cc(/C=C3/SC(=S)NC3=O)ccc2O1` (stereo not given), the IC50 in assay [18] was 39.3 µM (active); in [9] it was 16.9 µM (active); in [10], 9.86 µM (active); in assay [11], 39.1 µM (active); in assay [12] it was 8.72 µM (active). In addition, in assay [19], the AC50 was 0.308 µM (active).
A word on the EC50: it is the concentration that produces a half-maximal response. As for `CCCN1C[C@H](CSC)C[C@@H]2c3cccc4[nH]cc(c34)C[C@H]21` [PERGOLIDE MESYLATE], the EC50 in assay [20] is 92.5 µM (inactive).
On to `COc1cc(-c2nc3cc(C)ccn3c2NC2CCCCC2)ccc1-c1ccc(C(C)=O)cc1`, for which the IC50 in assay [16] is 118 µM (inactive).
